Columns and labels:
[1] = target: T1, N370S glucocerebrosidase from human spleen homogenate (Homo sapiens, UniProt P04062, N409S); experiment: qHTS fluorogenic enzyme assay for activators of N370S glucocerebrosidase (4-methylumbelliferyl-beta-D-glucopyranoside substrate); assay type: biochemical; conditions: pH 5.0, 37° C. 40 min
T1 construct: N370S glucocerebrosidase from human spleen homogenate as the enzyme preparation; from tissue; host or cells: human spleen homogenate
T1 sequence (P04062 40-536 N409S): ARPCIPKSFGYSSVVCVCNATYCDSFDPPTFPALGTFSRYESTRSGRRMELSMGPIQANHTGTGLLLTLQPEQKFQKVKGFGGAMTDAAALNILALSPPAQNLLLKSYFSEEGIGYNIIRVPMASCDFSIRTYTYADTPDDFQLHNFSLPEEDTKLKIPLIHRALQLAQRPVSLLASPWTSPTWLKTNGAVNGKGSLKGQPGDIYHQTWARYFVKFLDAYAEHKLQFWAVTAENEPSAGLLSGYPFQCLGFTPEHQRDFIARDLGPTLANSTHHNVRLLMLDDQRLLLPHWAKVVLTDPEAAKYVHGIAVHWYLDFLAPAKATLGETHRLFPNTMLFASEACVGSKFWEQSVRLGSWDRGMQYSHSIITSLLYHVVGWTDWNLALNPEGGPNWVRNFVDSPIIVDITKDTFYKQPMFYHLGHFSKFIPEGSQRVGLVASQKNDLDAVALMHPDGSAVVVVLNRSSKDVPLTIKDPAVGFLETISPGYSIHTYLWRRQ
Description: qHTS Assay for Inhibitors and Activators of N370S glucocerebrosidase as a Potential Chaperone Treatment of Gaucher Disease: Primary Screen Confirmation
This is a fluorogenic enzyme assay with 4-methylumbelliferyl-beta-D-glucopyranoside as the substrate and N370S glucocerebrosidase from human spleen homogenate as the enzyme preparation. Upon the hydrolysis of this fluorogenic substrate, the resulting product, […] which can be detected by a standard fluorescence plate reader. Data were normalized to the controls for basal activity (without enzyme) and 100% activity (with enzyme). The AC50 values were determined from concentration-response data modeled with the standard Hill equation.
Human spleen homogenate is prepared as follows by homogenizing spleen with assay buffer containing 50 mM citric acid (titrated with potassium phosphate to pH 5.0), 100 mM potassium chloride, 10 mM sodium chloride, 1 mM magnesium chloride, 0.01% Tween-20. The protein concentration of the human spleen homogenate is approximated 1.35 ug/ul.
The assay is performed in 1536 well plates according to the following protocol. (1) 2 ul spleen homogenate ([…] final) is added to each well. (2) 23 nL test compound in DMSO solution is added to each well. The final concentration of compound in the test well is 0.5 nM to 58 uM. (3) 2 ul of substrate (1 mM final) are added to each well. (4) Incubate assay plates at 37° C. for 40 min. (5) Add 2 ul stop solution (1M NaOH and 1M Glycine mixture, pH 10) to each well. (6) Detect the assay plate in a ViewLux plate reader (PerkinElmer) using 365 nm excitation with emission at 440 nm.

GCase = target: T2, GCase (Homo sapiens, UniProt P04062, N409S); experiment: Chaperone activity in N370S patient derived fibroblast (GCase/LAMP/DAPI staining); assay type: cell-based; conditions: NGC00188758-1 1 μM and 5 μM, isofagomine 1 μM, overlay of anti GCase R386 and LAMP stains
T2 construct: evaluated in a N370S patient derived fibroblast for chaperone activity; endogenous in cells; host or cells: N370S Gaucher patient-derived fibroblasts
T2 sequence (P04062 40-536 N409S): T1 sequence (P04062 40-536 N409S)
Description: GCase was visualized with red stain (anti GCase R386 antibody), lysosome with green (LAMP), and nucleus with blue (DAPI). […] All laser settings were held constant across all of the fields imaged.

SMILES | AC50 [1] | GCase activity in the lysosome relative to vehicle control (GCase)
C#Cc1ccc(NC(=O)c2cnn3c(C)cc(C)nc23)cc1 [NCGC00188758-01, N-(4-ethynylphenyl)-5,7-dimethylpyrazolo[1,5-a]pyrimidine-3-carboxamide] | 0.366 µM | significantly increased GCase activity in the lysosome
COc1ccc(NC(=O)c2cnn3c(C)cc(C)nc23)c(OC)c1 [NCGC00188781-01, N-(2,4-dimethoxyphenyl)-5,7-dimethylpyrazolo[1,5-a]pyrimidine-3-carboxamide] | 25.9 µM | –
Cc1cc(C)n2ncc(C(=O)Nc3ccc(C)c(Cl)c3)c2n1 [NCGC00188782-01, N-(3-chloro-4-methylphenyl)-5,7-dimethylpyrazolo[1,5-a]pyrimidine-3-carboxamide] | 1.83 µM | –
Cc1cc(C)n2ncc(C(=O)Nc3ccc(C)c(C)c3)c2n1 [NCGC00188783-01, N-(3,4-dimethylphenyl)-5,7-dimethylpyrazolo[1,5-a]pyrimidine-3-carboxamide] | 1.46 µM | –
CC(=O)c1ccc(NC(=O)c2cnn3c(C)cc(C)nc23)cc1 [NCGC00188784-01, N-(4-acetylphenyl)-5,7-dimethylpyraozlo[1,5-a]pyrimidine-3-carboxamide] | 163 µM | –
CC(=O)c1cccc(NC(=O)c2cnn3c(C)cc(C)nc23)c1 [NCGC00188785-01, N-(3-acetylphenyl)-5,7-dimethylpyrazolo[1,5-a]pyrimidine-3-carboxamide] | 32.6 µM | –
Cc1cc(C)n2ncc(C(=O)Nc3cccc(C(F)(F)F)c3)c2n1 [NCGC00188786-01, 5,7-dimethyl-N-(3-(trifluoromethyl)phenyl)pyrazolo[1,5-a]pyrimidine-3-carboxamide] | 41.1 µM | –
Cc1cc(C)n2ncc(C(=O)Nc3ccc(C(F)(F)F)cc3)c2n1 [NCGC00188787-01, 5,7-dimethyl-N-(4-(trifluoromethyl)phenyl)pyrazolo[1,5-a]pyrimidine-3-carboxamide] | 1.46 µM | –
Cc1cc(-c2ccccc2)nc2c(C(=O)NC3CCC(C(C)(C)C)CC3)cnn12 (stereo not drawn) [NCGC00229707-01, N-(4-tert-butylcyclohexyl)-7-methyl-5-phenylpyrazolo[1,5-a]pyrimidine-3-carboxamide] | 5.8 µM | –
Cc1cc(-c2ccccc2)nc2c(C(=O)NC3CCC(C(C)(C)C)CC3)cnn12 (stereo not drawn) [NCGC00229708-01, N-(4-tert-butylcyclohexyl)-7-methyl-5-phenylpyrazolo[1,5-a]pyrimidine-3-carboxamide] | 2.06 µM | –
Cc1cc(-c2ccccc2)n2ncc(C(=O)NC3CCC(C(C)(C)C)CC3)c2n1 (stereo not drawn) [NCGC0229711-01, N-(4-tert-butylcyclohexyl)-5-methyl-7-phenylpyrazolo[1,5-a]pyrimidine-3-carboxamide] | 32.6 µM | –
Cc1cc(C)n2ncc(C(=O)Nc3ccccc3Sc3ccccc3)c2n1 [NCGC00229712-01, 5,7-dimethyl-N-(2-(phenylthio)phenyl)pyrazolo[1,5-a]pyrimidine-3-carboxamide] | 18.3 µM | –
Cc1cc(C)n2ncc(C(=O)Nc3ccc(Cl)c(Cl)c3)c2n1 [NCGC00229713-01, N-(3,4-dichlorophenyl)-5,7-dimethylpyrazolo[1,5-a]pyrimidine-3-carboxamide] | 3.66 µM | –
CCc1ccc(NC(=O)c2cnn3c(C)cc(-c4ccccc4)nc23)cc1 [NCGC00229714-01, N-(4-ethylphenyl)-7-methyl-5-phenylpyrazolo[1,5-a]pyrimidine-3-carboxamide] | 13 µM | –
Cc1cc(-c2ccccc2)nc2c(C(=O)Nc3ccc(Cl)c(Cl)c3)cnn12 [NCGC00229715-01, N-(3,4-dichlorophenyl)-7-methyl-5-phenylpyrazolo[1,5-a]pyrimidine-3-carboxamide] | 6.51 µM | –
Cc1cc(C)n2ncc(C(=O)Nc3cc(Cl)cc(Cl)c3)c2n1 [NCGC00229716-01, N-(3,5-dichlorophenyl)-5,7-dimethylpyrazolo[1,5-a]pyrimidine-3-carboxamide] | 25.9 µM | –
CCc1ccc(NC(=O)c2cnn3c(-c4ccccc4)cc(C)nc23)cc1 [NCGC00229717-01, N-(4-ethylphenyl)-5-methyl-7-phenylpyrazolo[1,5-a]pyrimidine-3-carboxamide] | 9.19 µM | –
Cc1ccc(NC(=O)c2cnn3c(-c4ccccc4)cc(C)nc23)cc1 [NCGC0229718-01, 5-methyl-7-phenyl-N-p-tolylpyrazolo[1,5-a]pyrimidine-3-carboxamide] | 206 µM | –
Cc1cc(-c2ccccc2)nc2c(C(=O)Nc3ccc4c(c3)CCC4)cnn12 [NCGC00229719-01, N-(2,3-dihydro-1H-inden-5-yl)-7-methyl-5-phenylpyrazolo[1,5-a]pyrimidine-3-carboxamide] | 8.19 µM | –
OC[C@H]1CNC[C@@H](O)[C@@H]1O [isofagomine, reference compound] | – | significantly increased GCase activity in the lysosome
